Source: PubChem BioAssay (NCI)
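Five compound concentrations were applied to cells in 96-well plates for 48 hours; endpoints were derived by simple linear interpolation of the resulting dose-response curve. The concentration for 50% growth inhibition is given as GI50. At the TGI there is no net growth.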

Experiments:
Assay in all cases: inhibition of tumour cell growth, NCI panel, 48 h
T-47D breast = system: T-47D breast
A498 renal = system: A498 renal
SF-539 CNS = system: SF-539 CNS
M14 melanoma = system: M14 melanoma
MDA-MB-435 = system: MDA-MB-435
UACC-257 melanoma = system: UACC-257 melanoma
HCT-15 colon = system: HCT-15 colon
IGROV1 ovarian = system: IGROV1 ovarian
SF-268 CNS = system: SF-268 CNS
OVCAR-4 ovarian = system: OVCAR-4 ovarian
SW-620 colon = system: SW-620 colon
HCT-116 colon = system: HCT-116 colon
NCI-H23 lung = system: NCI-H23 lung
UACC-62 melanoma = system: UACC-62 melanoma
SK-OV-3 ovarian = system: SK-OV-3 ovarian
SF-295 CNS = system: SF-295 CNS
U251 CNS = system: U251 CNS
SK-MEL-28 melanoma = system: SK-MEL-28 melanoma
HOP-62 NSCLC = system: HOP-62 NSCLC
UO-31 renal = system: UO-31 renal
HCC-2998 colon = system: HCC-2998 colon
SNB-75 CNS = system: SNB-75 CNS
K-562 leukemia = system: K-562 leukemia
BT-549 breast = system: BT-549 breast
NCI-H522 lung = system: NCI-H522 lung
NCI-H226 lung = system: NCI-H226 lung
A549 NSCLC = system: A549 NSCLC
CCRF-CEM leukemia = system: CCRF-CEM leukemia
NCI-H460 lung = system: NCI-H460 lung
HS 578T breast = system: HS 578T breast
EKVX NSCLC = system: EKVX NSCLC
RPMI-8226 leukemia = system: RPMI-8226 leukemia
NCI/ADR-RES ovarian = system: NCI/ADR-RES ovarian
SK-MEL-2 melanoma = system: SK-MEL-2 melanoma
SNB-19 CNS = system: SNB-19 CNS
COLO 205 colon = system: COLO 205 colon
SK-MEL-5 melanoma = system: SK-MEL-5 melanoma
MDA-MB-231 breast = system: MDA-MB-231 breast
SR leukemia = system: SR leukemia
OVCAR-5 ovarian = system: OVCAR-5 ovarian
KM12 colon = system: KM12 colon
OVCAR-8 ovarian = system: OVCAR-8 ovarian
MALME-3M melanoma = system: MALME-3M melanoma
TK-10 renal = system: TK-10 renal
PC-3 prostate = system: PC-3 prostate
LOX IMVI melanoma = system: LOX IMVI melanoma
SN12C renal = system: SN12C renal
OVCAR-3 ovarian = system: OVCAR-3 ovarian
HL-60(TB) leukemia = system: HL-60(TB) leukemia
HOP-92 NSCLC = system: HOP-92 NSCLC
DU-145 prostate = system: DU-145 prostate
MCF7 breast = system: MCF7 breast
ACHN renal = system: ACHN renal
HT29 colon = system: HT29 colon
786-0 renal = system: 786-0 renal
MOLT-4 leukemia = system: MOLT-4 leukemia
CAKI-1 renal = system: CAKI-1 renal

SMILES: COc1ccc2sc(NC(=O)CCCCCCNC(=O)C(O)(O)C(F)(F)F)nc2c1
- GI50 (T-47D breast): 879 nM
- TGI (T-47D breast): 3020 nM
- GI50 (A498 renal): 901 nM
- TGI (A498 renal): 6470 nM
- GI50 (SF-539 CNS): 2050 nM
- TGI (SF-539 CNS): > 30300 nM
- GI50 (M14 melanoma): 2070 nM
- TGI (M14 melanoma): > 30300 nM
- GI50 (MDA-MB-435): 1030 nM
- TGI (MDA-MB-435): 6000 nM
- GI50 (UACC-257 melanoma): 1490 nM
- TGI (UACC-257 melanoma): 26800 nM
- GI50 (HCT-15 colon): 3570 nM
- TGI (HCT-15 colon): 10100 nM
- GI50 (IGROV1 ovarian): 1830 nM
- TGI (IGROV1 ovarian): 7730 nM
- GI50 (SF-268 CNS): 1480 nM
- TGI (SF-268 CNS): 8210 nM
- GI50 (OVCAR-4 ovarian): 2800 nM
- TGI (OVCAR-4 ovarian): > 30300 nM
- GI50 (SW-620 colon): 531 nM
- TGI (SW-620 colon): 1850 nM
- GI50 (HCT-116 colon): 754 nM
- TGI (HCT-116 colon): > 30300 nM
- GI50 (NCI-H23 lung): 2830 nM
- TGI (NCI-H23 lung): 21700 nM
- GI50 (UACC-62 melanoma): 828 nM
- TGI (UACC-62 melanoma): 3410 nM
- GI50 (SK-OV-3 ovarian): 860 nM
- TGI (SK-OV-3 ovarian): 2310 nM
- GI50 (SF-295 CNS): 1070 nM
- TGI (SF-295 CNS): 3410 nM
- GI50 (U251 CNS): 1040 nM
- TGI (U251 CNS): 5270 nM
- GI50 (SK-MEL-28 melanoma): 1160 nM
- TGI (SK-MEL-28 melanoma): 7950 nM
- GI50 (HOP-62 NSCLC): 1330 nM
- TGI (HOP-62 NSCLC): > 30300 nM
- GI50 (UO-31 renal): 1120 nM
- TGI (UO-31 renal): 5700 nM
- GI50 (HCC-2998 colon): 2150 nM
- TGI (HCC-2998 colon): 7560 nM
- GI50 (SNB-75 CNS): 912 nM
- TGI (SNB-75 CNS): > 30300 nM
- GI50 (K-562 leukemia): 882 nM
- TGI (K-562 leukemia): > 30300 nM
- GI50 (BT-549 breast): 1500 nM
- TGI (BT-549 breast): 18900 nM
- GI50 (NCI-H522 lung): 919 nM
- TGI (NCI-H522 lung): 4610 nM
- GI50 (NCI-H226 lung): 4940 nM
- TGI (NCI-H226 lung): 22600 nM
- GI50 (A549 NSCLC): 1860 nM
- TGI (A549 NSCLC): 18400 nM
- GI50 (CCRF-CEM leukemia): 1340 nM
- TGI (CCRF-CEM leukemia): > 30300 nM
- GI50 (NCI-H460 lung): 877 nM
- TGI (NCI-H460 lung): 13500 nM
- GI50 (HS 578T breast): 969 nM
- TGI (HS 578T breast): 9910 nM
- GI50 (EKVX NSCLC): 2330 nM
- TGI (EKVX NSCLC): > 30300 nM
- GI50 (RPMI-8226 leukemia): 988 nM
- TGI (RPMI-8226 leukemia): > 30300 nM
- GI50 (NCI/ADR-RES ovarian): 2070 nM
- TGI (NCI/ADR-RES ovarian): 18500 nM
- GI50 (SK-MEL-2 melanoma): 1060 nM
- TGI (SK-MEL-2 melanoma): 5200 nM
- GI50 (SNB-19 CNS): 2470 nM
- TGI (SNB-19 CNS): 14700 nM
- GI50 (COLO 205 colon): 920 nM
- TGI (COLO 205 colon): 3650 nM
- GI50 (SK-MEL-5 melanoma): 1420 nM
- TGI (SK-MEL-5 melanoma): 4870 nM
- GI50 (MDA-MB-231 breast): 680 nM
- TGI (MDA-MB-231 breast): 2240 nM
- GI50 (SR leukemia): 738 nM
- TGI (SR leukemia): > 30300 nM
- GI50 (OVCAR-5 ovarian): 912 nM
- TGI (OVCAR-5 ovarian): 6260 nM
- GI50 (KM12 colon): 1290 nM
- TGI (KM12 colon): 7400 nM
- GI50 (OVCAR-8 ovarian): 989 nM
- TGI (OVCAR-8 ovarian): 6580 nM
- GI50 (MALME-3M melanoma): 1040 nM
- TGI (MALME-3M melanoma): 12000 nM
- GI50 (TK-10 renal): 736 nM
- TGI (TK-10 renal): > 30300 nM
- GI50 (PC-3 prostate): 1720 nM
- TGI (PC-3 prostate): > 30300 nM
- GI50 (LOX IMVI melanoma): 1380 nM
- TGI (LOX IMVI melanoma): 5420 nM
- GI50 (SN12C renal): 2310 nM
- TGI (SN12C renal): 19000 nM
- GI50 (OVCAR-3 ovarian): 696 nM
- TGI (OVCAR-3 ovarian): 2840 nM
- GI50 (HL-60(TB) leukemia): 1060 nM
- TGI (HL-60(TB) leukemia): > 30300 nM
- GI50 (HOP-92 NSCLC): 649 nM
- TGI (HOP-92 NSCLC): 2470 nM
- GI50 (DU-145 prostate): 1010 nM
- TGI (DU-145 prostate): 14000 nM
- GI50 (MCF7 breast): 1750 nM
- TGI (MCF7 breast): > 30300 nM
- GI50 (ACHN renal): 1180 nM
- TGI (ACHN renal): 6580 nM
- GI50 (HT29 colon): 912 nM
- TGI (HT29 colon): > 30300 nM
- GI50 (786-0 renal): 1080 nM
- TGI (786-0 renal): > 30300 nM
- GI50 (MOLT-4 leukemia): 1070 nM
- TGI (MOLT-4 leukemia): > 30300 nM
- GI50 (CAKI-1 renal): 1830 nM
- TGI (CAKI-1 renal): 14700 nM
